Data as given in PubChem BioAssay (NCI).
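Each compound was tested at five concentrations against cells in 96-well plates for 48 hours. The concentration for 50% growth inhibition is given as GI50. TGI is the concentration that stops growth completely.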

Columns and labels:
Assay in all cases: DTP human tumour cell line panel, 48 h
ACHN renal = tested on: ACHN renal
COLO 205 colon = tested on: COLO 205 colon
HCT-116 colon = tested on: HCT-116 colon
HOP-92 NSCLC = tested on: HOP-92 NSCLC
HT29 colon = tested on: HT29 colon
IGROV1 ovarian = tested on: IGROV1 ovarian
KM12 colon = tested on: KM12 colon
OVCAR-3 ovarian = tested on: OVCAR-3 ovarian
OVCAR-5 ovarian = tested on: OVCAR-5 ovarian
OVCAR-8 ovarian = tested on: OVCAR-8 ovarian
RPMI-8226 leukemia = tested on: RPMI-8226 leukemia
SF-539 CNS = tested on: SF-539 CNS
SNB-19 CNS = tested on: SNB-19 CNS

Compound | TGI (ACHN renal) | TGI (COLO 205 colon) | TGI (HCT-116 colon) | TGI (HOP-92 NSCLC) | TGI (HT29 colon) | TGI (IGROV1 ovarian) | TGI (KM12 colon) | TGI (OVCAR-3 ovarian) | TGI (OVCAR-5 ovarian) | TGI (OVCAR-8 ovarian) | TGI (RPMI-8226 leukemia) | TGI (SF-539 CNS) | TGI (SNB-19 CNS) | GI50 (RPMI-8226 leukemia) | GI50 (SF-539 CNS) | GI50 (ACHN renal) | GI50 (COLO 205 colon) | GI50 (HOP-92 NSCLC) | GI50 (IGROV1 ovarian) | GI50 (OVCAR-5 ovarian)
CCc1c2cc(OC)c(OC)cc2cc2c3cc(OC)c(OC)cc3cc[n+]12 (tested in a mixture with another compound) | > 71.2 µM | 22.8 µM | > 53.8 µM | > 80 µM | > 66.4 µM | > 85.3 µM | > 61.5 µM | > 89.8 µM | > 100 µM | > 72.6 µM | > 47.3 µM | > 94.9 µM | 82.1 µM |  |  |  |  |  |  | 
COc1ccc(NC(=S)NNC(=O)c2nsc3ccccc23)cc1 | > 100 µM | > 100 µM | > 100 µM | 83.5 µM | > 100 µM | > 100 µM | > 100 µM | 52.9 µM | > 100 µM | > 100 µM | > 100 µM | 75.8 µM | > 100 µM |  |  |  |  |  |  | 
OC(c1ccc(Cl)cc1)(c1ccc(Cl)cc1)c1cncnc1 |  | 35.2 µM | 28.6 µM | 31.2 µM | 32.1 µM |  | 31.9 µM | 32.2 µM | 36.6 µM | 54.8 µM | 85.3 µM |  | 48.8 µM |  |  |  |  |  |  | 
Cc1cn(C2C=CC(COP(=O)(OCc3ccc([N+](=O)[O-])o3)N(C)CCCCCl)O2)c(=O)[nH]c1=O (stereo unspecified) | 28.6 µM | 9.87 µM | 20.8 µM | 10.9 µM | 27 µM | 12.7 µM | 24.1 µM | 4.8 µM | 30.9 µM | 32.4 µM | 14.1 µM | 12.3 µM | 21.3 µM |  |  |  |  |  |  | 
CCCCN(CCCC)CCC(O)c1cc(-c2ccc(C(F)(F)F)cc2)nc(-c2ccc(C(F)(F)F)cc2)c1 (stereo unspecified) | > 100 µM | > 100 µM | > 100 µM | > 100 µM | > 100 µM | > 100 µM |  | > 100 µM | > 100 µM | > 100 µM | > 100 µM | > 100 µM | > 100 µM |  |  |  |  |  |  | 
O=C1CCCC/C1=C1/SC(=Nc2ccccc2)C(=Nc2ccccc2)N1c1ccccc1 |  | > 100 µM | > 100 µM | > 100 µM | > 100 µM | > 100 µM | > 100 µM | > 100 µM | > 100 µM | > 100 µM | > 100 µM |  | > 100 µM |  |  |  |  |  |  | 
COC1CC(OC2CCC3(C)C(=CCC4C3C(OC(C)=O)C(OC(=O)CC(C)C)C3(C)C(C(C)=O)CCC43O)C2)OC(C)C1OC1CC(OC)C(OC2CC(OC)C(OC3OC(C)C(O)C(OC)C3O)C(C)O2)C(C)O1 (stereo unspecified) | > 100 µM | 45 µM | 60.6 µM | 57.6 µM | 42.8 µM | > 100 µM | > 100 µM | > 100 µM | > 100 µM | > 100 µM | 45.8 µM | 51.2 µM | > 100 µM |  |  |  |  |  |  | 
Clc1cc2ccccc2c2ccccc12 | > 100 µM | > 100 µM | > 100 µM | 87.3 µM | > 100 µM | > 100 µM | > 100 µM | > 100 µM | > 100 µM | > 100 µM | > 100 µM | > 100 µM | > 100 µM |  |  |  |  |  |  | 
O=NN1C(c2ccccc2)C2CCCC(C2=O)C1c1ccccc1 (stereo unspecified) |  | 32 µM | > 63.1 µM | 55.6 µM | 40.1 µM | > 92.7 µM | 99.2 µM | 9.28 µM | > 100 µM | > 100 µM | 48.4 µM | > 100 µM | > 92.5 µM |  |  |  |  |  |  | 
NC1C=NNC1=O (stereo unspecified) | > 100 µM | > 100 µM |  |  | > 100 µM | > 100 µM | > 100 µM |  | > 100 µM | > 100 µM | > 100 µM | > 100 µM | > 100 µM |  |  |  |  |  |  | 
O=C(Nn1c(-c2cccs2)nc2ccc(I)cc2c1=O)c1ccccc1 | > 100 µM | > 100 µM | > 100 µM | 51.7 µM | 90.6 µM | 82.6 µM | 81.2 µM | 39.3 µM | > 100 µM | > 100 µM | 58.1 µM | > 100 µM | 64.5 µM | 22.8 µM | 30.1 µM |  |  |  |  | 
Clc1ccc(C2CC(c3cccc(Nc4ccncc4)c3)=NN2c2ccc(Cl)cc2)cc1 (stereo unspecified) | 3 µM | 4.75 µM |  | 2.79 µM |  | 3.18 µM |  |  | 2.88 µM |  |  | 3.03 µM |  |  | 1.64 µM | 1.64 µM | 2.09 µM | 1.38 µM | 1.65 µM | 1.54 µM
O=C(O)C1OC1C(=O)O (stereo unspecified) | > 100 µM | > 100 µM | > 100 µM | > 100 µM | > 100 µM | > 100 µM | > 100 µM | > 100 µM | > 100 µM | > 100 µM | > 100 µM |  | > 100 µM |  |  |  |  |  |  | 
C[C@]12Cc3cnc(-c4ccccc4)nc3C[C@@H]1CC[C@@H]1[C@@H]2CC[C@@]2(C)[C@H]1CC[C@]2(C)O | > 64.9 µM | 43.2 µM | 48.8 µM | 54.4 µM | 23.7 µM | 63.3 µM | > 67.8 µM | 54.4 µM | 63.4 µM | 40.4 µM | 55 µM | 9.55 µM | 44.3 µM |  |  |  |  |  |  | 
CC(C)=Cc1cc(C)c2c3c(c(O)c(O)c(C)c13)C(C)=CC2=O | 56.2 µM | 26.6 µM | 37.7 µM | 38.6 µM | 32.1 µM | > 100 µM | 45.8 µM | 52.7 µM | 73.3 µM | > 100 µM | 15 µM | 71.6 µM | > 100 µM |  |  |  |  |  |  | 
CN(CCO)Cc1ncccc1O | > 100 µM | > 100 µM |  | > 100 µM | > 100 µM | > 100 µM | > 100 µM | > 100 µM | > 100 µM | > 100 µM | > 100 µM | > 100 µM | > 100 µM |  |  |  |  |  |  | 
O=S(=O)(O)c1cc(S(=O)(=O)O)c2cc(N=Nc3c(O)ccc4ccccc34)ccc2c1 | > 100 µM | > 100 µM | > 100 µM | > 100 µM | > 100 µM | > 100 µM | > 100 µM | > 100 µM | > 100 µM | > 100 µM | > 100 µM |  | > 100 µM |  |  |  |  |  |  | 
CN1CC(c2ccccc2)C(O)(C2(c3ccccc3)CN(C)CC(c3ccccc3)C2=O)C(c2ccccc2)C1 (stereo unspecified) | > 100 µM | > 100 µM | > 100 µM | > 100 µM | > 100 µM | > 100 µM | > 100 µM | > 100 µM | > 100 µM | > 100 µM | > 100 µM | > 100 µM | > 100 µM |  |  |  |  |  |  | 
Nc1c(OCC(=O)O)ccc2cc(S(=O)(=O)O)ccc12 | > 100 µM | > 100 µM | > 100 µM |  |  | > 100 µM | > 100 µM | > 100 µM |  | > 100 µM | > 100 µM | > 100 µM | > 100 µM |  |  |  |  |  |  | 
CCC1C(C#N)=C(O)NC(O)=C1C#N | > 100 µM | > 100 µM | > 100 µM | > 100 µM | > 100 µM | > 100 µM | > 100 µM | > 100 µM | > 100 µM | > 100 µM | > 100 µM | > 100 µM | > 100 µM |  |  |  |  |  |  | 
COc1ccc(C(=O)NC2=C(Cl)C(=O)c3ccccc3C2=O)cc1 | 1.73 µM | 3.74 µM | 1.52 µM | 2.73 µM | 19.4 µM | 12.9 µM | 12.2 µM | 6.26 µM | 11.4 µM | 14.4 µM |  | 11.6 µM | 17.4 µM |  |  |  |  |  |  | 
CC1C2CCC3C(O)C2(CC(O)C2(O)C1CC(O)C2(C)C)CC3(C)O (stereo unspecified) | > 100 µM | > 100 µM | > 100 µM | > 100 µM | > 100 µM | > 100 µM | > 100 µM |  | > 100 µM | > 100 µM |  | > 100 µM | > 100 µM |  |  |  |  |  |  | 
CCOC(=O)c1nc2ccccc2n(CC)c1=O | > 100 µM | > 100 µM | > 100 µM | > 100 µM | > 100 µM | > 100 µM | > 100 µM | > 100 µM | > 100 µM | > 100 µM | > 100 µM | > 100 µM | > 100 µM |  |  |  |  |  |  | 
CN(C)CCCNc1ccc2nnn3c4ccc(OC(=O)c5ccccc5)cc4c(=O)c1c23 | 16.5 µM | 28.9 µM | 24.7 µM | 39.2 µM | 22.2 µM | 36.3 µM | 23.3 µM | 24.9 µM | 30.4 µM | 39.8 µM | 25.5 µM | 22.7 µM | 25.4 µM |  |  |  |  |  |  | 
c1cc(-c2ccc(-c3nc4ccc(C5=NCCN5)cc4s3)s2)ccc1C1=NCCN1 | 1.28 µM |  | 1.35 µM | 1.08 µM | 2.08 µM | 2.52 µM | 1.67 µM | 5.25 µM | 0.327 µM | 0.801 µM | 1.22 µM | 0.319 µM | 9.38 µM |  |  |  |  |  |  | 
CO/N=C(/C)c1cccc(Nc2nc3ccc(Cl)cc3c3[nH]c4ccccc4c23)c1 | 13.5 µM | 19.9 µM | 14.7 µM | 21 µM |  | 29.4 µM | 14.6 µM | 18.5 µM | 23.7 µM | 23.1 µM | 17 µM | 30.1 µM | 35.6 µM |  |  |  |  |  |  | 
O=C(O)CCO/N=C1/C(c2c(O)[nH]c3ccccc23)=Nc2ccccc21 | > 100 µM | 35.1 µM | 34.8 µM | 96.9 µM | 79.4 µM | > 100 µM | 38.9 µM | 43.9 µM | > 100 µM | > 100 µM | > 100 µM | > 100 µM | > 100 µM |  |  |  |  |  |  | 
